{
  "source": "patent US20220372498A1",
  "about": "“STABILIZER FOR ADENO-ASSOCIATED VIRUSES AND METHOD FOR STABILIZING ADENO-ASSOCIATED VIRUSES BY USING SAME” (priority 2020, published 2022)",
  "key": {"[1]": {"system": "adeno-associated virus serotype 9 (AAV 9)", "assay": "Crystal formation and average particle size after mixing surfactant-treated AAV solution with tannic acid solution (DLS, microscope)", "type": "physicochemical", "conditions": "surfactant 0.05% (w/w) in AAV solution (PBS, pH 7.4) + 0.5 mM tannic acid, after about 10 minutes", "procedure": "The present inventors tried to check the change in AAV stability by treating a surfactant to solve the problem of AAV aggregation when preparing a gene delivery system using AAV. To this end, the effect was verified for various types of surfactants known in the art. More specifically, after mixing 50 uL of 0.5 mM tannic acid solution with 1×108 genome/ul AAV solution in which each of Tween 80, Triton X, CHAPS, cetrimonium bromide (CTAB), and sodium deoxycholate was present in a concentration of 0.05% (w/w) (PBS, pH 7.4), and then after about 10 minutes, the average particle size was measured through dynamic light scattering (DLS), and the formation of crystals that could cause blood vessel clogging was observed under a microscope. At this time, as a condition not treated with a surfactant, 50 uL of a 1×108 genome/ul AAV solution (PBS, pH 7.4) was mixed with 50 uL of 0.5 mM tannic acid solution, and average particle size measurement and microscopic observation were performed in the same manner as above."}, "[2]": {"system": "adeno-associated virus serotype 9 (AAV 9)", "assay": "Crystal formation after mixing FBS with surfactant-containing AAV and tannic acid (microscope)", "type": "physicochemical", "conditions": "surfactant 0.05% (w/w), 0.5 mM tannic acid, then 50 uL of 10% FBS", "procedure": "Furthermore, the present inventors have attempted to verify whether the formation of a potential crystal structure that may block blood vessels when mixed with plasma may be suppressed through the treatment of a surfactant additionally. To this end, 50 uL of 0.5 mM tannic acid solution was mixed with 50 uL of 1×108 genome/ul AAV solution (PBS, pH 7.4) containing each of CTAB, Tween 80, and CHAPS in a concentration of 0.05% (w/w), and then about 5 minutes after, 50 uL of 10% FBS solution was mixed and observed whether crystals of 10 μm or larger were formed under a microscope."}, "[3]": {"system": "adeno-associated virus serotype 9 (AAV 9)", "assay": "AAV stability according to surfactant concentration (UV-Vis absorbance 600 nm scattering, microscope)", "type": "physicochemical", "conditions": "0.5 mM tannic acid", "procedure": "50 uL of 0.5 mM tannic acid solution was mixed with 1×108 genome/ul AAV solution in which Tween 80, a nonionic surfactant, is present in a concentration of 0.2%, 0.05%, 0.0125%, and 0.003% (w/w) (PBS, pH 7.4), respectively, and about 5 minutes after, UV-Vis absorbance in the 600 nm wavelength band was measured for scattering, and crystal formation was observed under a microscope.\nIn addition, under conditions in which Triton X, another nonionic surfactant, is present in a concentration of 0.05%, 0.0125, 0.003%, and 0.0008% (w/w), respectively, AAV and tannic acid solutions were mixed in the same method as above, and the same experiment was performed, and the result was observed.\n(§1) 50 uL of 0.5 mM tannic acid solution was mixed with 1×108 genome/ul AAV solution in which the zwitterionic surfactant CHAPS is present in a concentration of 0.4%, 0.1%, 0.025%, 0.006% (w/w) (PBS, pH 7.4), respectively, and after about 5 minutes, UV-Vis absorbance in the 600 nm wavelength band was measured for scattering, and crystal formation was observed under a microscope.\nas §1, with “cationic” for “zwitterionic”, “CTAB” for “CHAPS”\nas §1, with “anionic” for “zwitterionic”, “sodium deoxycholate” for “CHAPS”, “0.2%, 0.05%, 0.0125%, […]” for “0.4%, 0.1%, 0.025%, 0.006%”"}, "[4]": {"assay": "Viability of mice after tail vein injection of AAV / tannic acid / Tween 80 mixtures", "conditions": "in vivo", "text": "On the other hand, the presence or absence of the formation of such crystalline particles is one of the major factors affecting the survival of experimental animals in animal experiments. Crystalline particles of more than 10 μm can block capillaries in the body, and clogged blood vessels can cause ischemic disease, myocardial infarction, cerebral infarction, rupture of blood vessels, etc., and in severe cases, leading to death. Therefore, the present inventors tried to experimentally confirm how the crystallinity was confirmed in the results of FIG. 1A affects the survival of mice. To this end, 50 uL of 0.5 mM or 0.25 mM tannic acid solution was mixed with 50 uL of 2×109 genome/ul AAV solution containing Tween 80 in a concentration of 0.01% (w/w) (PBS, pH 7.4), and then viability was confirmed by injecting 100 uL of mixed solution into the tail vein of the mouse within about 30 minutes (0.01% (w/w) Tween 80+0.5 mM TA+AAV/0.01% (w/w) Tween 80+0.25 mM TA+AAV). In addition, as a condition with the absence of surfactant, 50 uL of 2×109 genome/ul AAV solution without Tween 80 was mixed with tannic acid under the same conditions and injected into the tail vein of mice (0.5 mM TA+AAV/0.25 mM TA+AAV). […]"}, "[5]": {"system": "adeno-associated virus serotype 9 (AAV 9)", "assay": "In vitro stability of particle size over time (DLS; UV-Vis 600 nm scattering)", "type": "physicochemical", "conditions": "surfactant 0.05% (w/w); 0 min, 30 min, 1 day; compared among Tween 80, CHAPS, sodium deoxycholate", "procedure": "The size and shape of AAV particles must be maintained constantly from mixing to injection. Therefore, it was analyzed whether the particle size was maintained until after 30 minutes, which is a time taken from mixing to injection, and a sufficient time, one day. To this end, 50 uL of 0.5 mM tannic acid solution was mixed with 1×108 genome/ul AAV solution in which Tween 80 is present in a concentration of 0.01% (w/w) (PBS, pH 7.4), and then, after about 5 minutes, the average particle sizes were measured at 0 min, […], and 1 day, respectively, through a dynamic light scattering method, and the increase in particle sizes was compared with the initial value.\nIn addition, 50 uL of 0.5 mM tannic acid solution was mixed with 1×108 genome/ul AAV solution in which various types of surfactants, i.e., Tween 80, CHAPS, and sodium deoxycholate are present in a concentration of 0.05% (w/w) each (PBS, pH 7.4), and then, after about 5 minutes, UV-Vis absorbance of each 600 nm wavelength band was measured at 0 min (min), 30 min, and 1 day (day) to measure the scattering degree. The change in particle size over time was analyzed through an increase in scattering compared to the initial value."}, "[6]": {"system": "adeno-associated virus serotype 9 (AAV 9)", "assay": "AAV stability with albumin alone (DLS, microscope)", "type": "physicochemical", "conditions": "0.5 mM tannic acid, about 10 minutes", "procedure": "50 uL of 0.5 mM tannic acid solution was mixed with 1×108 genome/ul AAV solution in which the albumin is present at various concentrations of 10%, 1%, 0.1%, 0.01% (w/w) (PBS, pH 7.4), respectively, and after about 10 minutes, the average particle size was measured through dynamic light scattering, and particle formation was observed under a microscope."}, "[7]": {"conditions": "surfactant 0.006% (w/w), PBS pH 7.4, about 5 minutes"}, "[8]": {"conditions": "surfactant 0.025% (w/w), PBS pH 7.4, about 5 minutes"}, "[9]": {"conditions": "surfactant 0.4% (w/w), PBS pH 7.4, about 5 minutes"}, "[10]": {"conditions": "surfactant 0.003% (w/w), PBS pH 7.4, about 5 minutes"}, "[11]": {"conditions": "surfactant 0.0125% (w/w), PBS pH 7.4, about 5 minutes"}},
  "data": [
    {"compound": "C[C@H](CCC(=O)NCCC[N+](C)(C)CCCS(=O)(=O)[O-])[C@H]1CC[C@H]2[C@@H]3[C@H](O)C[C@@H]4C[C@H](O)CC[C@]4(C)[C@H]3C[C@H](O)[C@]12C", "note": "[CHAPS, 3-[(3-cholamidopropyl)dimethylammonio]-1-propanesulfonate]", "values": [
      {"measurement": "formation of crystalline particles in which AAV was aggregated (microscope)", "setting": "[1]", "result": "not observed"},
      {"measurement": "formation of crystals of 10 μm or larger after mixing FBS", "setting": "[2]", "result": "crystals are not formed"},
      {"measurement": "particle / crystal formation", "setting": "[3]; [7]", "result": "crystal structure was formed"},
      {"measurement": "particle / crystal formation", "setting": "[3]; [8]", "result": "nano-sized particles were formed"},
      {"measurement": "particle / crystal formation", "setting": "[3]; surfactant 0.1% (w/w), PBS pH 7.4, about 5 minutes", "result": "crystal structure was formed"},
      {"measurement": "particle / crystal formation", "setting": "[3]; [9]", "result": "crystal structure was formed"}
    ]},
    {"compound": "CCCCCCCCCCCCCCCC[N+](C)(C)C.[Br-]", "note": "[CTAB, cetrimonium bromide]", "values": [
      {"measurement": "formation of crystalline particles in which AAV was aggregated (microscope)", "setting": "[1]", "result": "not observed"},
      {"measurement": "formation of crystals of 10 μm or larger after mixing FBS", "setting": "[2]", "result": "crystals are not formed"},
      {"measurement": "particle / crystal formation", "setting": "[3]; [7]", "result": "crystal structure was formed"},
      {"measurement": "particle / crystal formation", "setting": "[3]; [8]", "result": "nano-sized particles"},
      {"measurement": "particle / crystal formation", "setting": "[3]; [9]", "result": "crystal structure was formed"}
    ]},
    {"compound": "O=C(OC[C@H]1O[C@@H](OC(=O)c2cc(O)c(O)c(OC(=O)c3cc(O)c(O)c(O)c3)c2)[C@H](OC(=O)c2cc(O)c(O)c(OC(=O)c3cc(O)c(O)c(O)c3)c2)[C@@H](OC(=O)c2cc(O)c(O)c(OC(=O)c3cc(O)c(O)c(O)c3)c2)[C@@H]1OC(=O)c1cc(O)c(O)c(OC(=O)c2cc(O)c(O)c(O)c2)c1)c1cc(O)c(O)c(OC(=O)c2cc(O)c(O)c(O)c2)c1", "note": "[TA, tannic acid]", "values": [
      {"measurement": "Result (viability of mouse)", "setting": "[4]", "result": "Survival"}
    ]},
    {"compound": "Triton X", "values": [
      {"measurement": "formation of crystalline particles in which AAV was aggregated (microscope)", "setting": "[1]", "result": "not observed"},
      {"measurement": "particle / crystal formation", "setting": "[3]; surfactant 0.0008% (w/w), PBS pH 7.4, about 5 minutes", "result": "nano-sized particles were formed"},
      {"measurement": "particle / crystal formation", "setting": "[3]; [10]", "result": "nano-sized particles were formed"},
      {"measurement": "particle / crystal formation", "setting": "[3]; [11]", "result": "crystal structure was formed"},
      {"measurement": "particle / crystal formation", "setting": "[3]; surfactant 0.05% (w/w), PBS pH 7.4, about 5 minutes", "result": "crystal structure was formed"}
    ]},
    {"compound": "Tween 80", "values": [
      {"measurement": "formation of crystalline particles in which AAV was aggregated (microscope)", "setting": "[1]", "result": "not observed"},
      {"measurement": "formation of crystals of 10 μm or larger after mixing FBS", "setting": "[2]", "result": "crystals are not formed"},
      {"measurement": "particle / crystal formation", "setting": "[3]; [10]", "result": "crystal structure was formed"},
      {"measurement": "particle / crystal formation", "setting": "[3]; [11]", "result": "nano-sized particles"},
      {"measurement": "particle / crystal formation", "setting": "[3]; surfactant 0.2% (w/w), PBS pH 7.4, about 5 minutes", "result": "crystal structure was formed"},
      {"measurement": "change in particle size over time (increase in scattering, UV-Vis 600 nm)", "setting": "[5]", "result": "most stably maintained"}
    ]},
    {"compound": "albumin", "values": [
      {"measurement": "particle / crystal formation", "setting": "[6]; albumin 0.01% (w/w)", "result": "crystal structure was formed"},
      {"measurement": "particle / crystal formation", "setting": "[6]; albumin 0.1% (w/w)", "result": "micro-sized particles were formed"},
      {"measurement": "particle / crystal formation", "setting": "[6]; albumin 1% (w/w)", "result": "crystal structure was formed"},
      {"measurement": "particle / crystal formation", "setting": "[6]; albumin 10% (w/w)", "result": "crystal structure was formed"}
    ]},
    {"compound": "sodium deoxycholate", "values": [
      {"measurement": "formation of crystalline particles in which AAV was aggregated (microscope)", "setting": "[1]", "result": "large fibrous particles were observed"},
      {"measurement": "particle / crystal formation", "setting": "[3]; all concentrations: 0.2%, 0.05%, 0.0125%, 0.0003% (w/w), PBS pH 7.4", "result": "crystal structure was formed"}
    ]}
  ]
}
